Assay results reported in patent US20250235533A1, “INJECTABLE PROLONGED-RELEASE HYDROGEL FORMULATIONS OF TOLL-LIKE RECEPTOR AGONISTS FOR INTRATUMORAL INJECTION TO INCREASE IMMUNOTHERAPY RESPONSE” (priority 2024, published 2025).
Blank lines part the entries; values can stand above or below the molecule they belong to.

What was measured:
[1] = In vitro release studies; assay type: physicochemical
Experimental: Drug release kinetics of imiquimod from various […] formulations were studied by placing aliquots of drug-loaded hydrogel into 50 mL conical tubes at 100 rpm at 37° C., releasing drug into DPBS. 50 μL of […] were added to the bottom of 50 mL conical Falcon tubes or in a dialysis tubing (D-tube Dialyzer Maxi, MWCO 3.5 kDa) at room temperature and brought to gel state by incubating at 37° C. for 30 min while DPBS as receiving fluid was preheated at the same temperature. After […] solidified, 50 mL DPBS (pH 7.4), Lactated […]), or Acetate Buffer (pH 5, 0.03 m Acetic acid, and 0.07 m Sodium Acetate in DI water) were added slowly to the conical tubes. These containers were then incubated at 37° C. under shaking at 100 rpm. 400 μL samples were taken from the receiving fluid with a 1 mL syringe through 0.2 μm filters (PALL super membrane low protein binding non-pyrogenic) to avoid accidental removal of gel. Concentration of imiquimod in the samples was assessed eluting the samples on an Agilent 1100 high-performance liquid chromatography (HPLC) with UV detector at 242 nm over an Eclipse XD8-C18 column (150×4.6 mm, 3.5 μm pore size) with an acetonitrile/water gradient from 5/95 to 95/5 over 6 min at 1 mL mi-1 n. […] Concentrations were calculated from UV signals using a calibration curve of known concentration imiquimod standards in DMSO/Acetonitrile.

[2] = cited from earlier work
[3] = Solubility / encapsulation of immunoadjuvant in PLGA-PEG-PLGA micelles; assay type: physicochemical
Experimental: Typically, 1 g of PLGA-PEG-PLGA was dissolved in 4 ml 0.9% saline solution (Baxter, Deerfield, IL) to obtain a 25% weight/volume (w/v) concentration at 4° C. over 2 days and vortexed/stirred daily. Importantly, the normal saline cannot contain the preservative phenol, commonly found in preservative containing commercial saline solutions. After a homogeneous hydrogel solution was observed by stirring with a spatula, imiquimod was added at 24 mg to the batch, the dispersion was vortexed and allowed to dissolve at room temperature over 2 days. Some of the gels received Iopamidol as contrast agent at 100 mg mL^−1, which was left to disperse or dissolve over 1 day. The resulting Imigel or Imigel+Iopamidol was stored at room temperature, shielded from evaporation, and used within 1 week from full dissolution to prevent hydrolysis. (FIGS. 3A-3E).

[4] = test system: CD8+ T cells in CT-26 tumors; assay: Intratumoral flow cytometry, CT-26 model; assay type: in vivo, mice; conditions: compared to CPI only
Experimental: Additional groups of 4 mice were injected with CT-26 and treated as above. 6 days post local intervention, mice were euthanized, and ipsilateral and contralateral tumors excised. In all cases of this example, tumor samples were minced and then incubated in a collagenase solution (1 mg mL^−1 in RPMI—1640) for approximately 45 min at 37° C. Tumors were processed into a single cell suspension using a 70 μm cell strainer.
For flow cytometry, using the cells harvested as above, cell viability was assessed by trypan blue staining, and 1×10^6 viable cells were stained for flow cytometry analysis. Cells were washed with PBS and stained with a 1:1000 solution of ZOMBIE Aqua (from […], Biolegend) and incubated on ice for 15 min. […] Cells were resuspended in cell staining buffer, and the samples were analyzed on an Aurora (Cytek Biotechnology). […] Gating for individual markers was determined by fluorescent minus one (FMO) control panels and unstained controls. […]

[5] = test system: CT-26 tumors; assay: Dual tumor model survival study, CT-26; assay type: in vivo, balb/c mice; conditions: CT-26 model
Experimental: Per experimental arm 10-15 Balb c^−1 mice were injected with approximately 10^6 cells of CT-26 or EMT-6 cells, day 0 (FIG. 6) in bilateral flanks. Immunotherapy (anti-PD-1 (3.9 mg mL^−1), anti-CTLA-4 (2.2 mg mL^−1) co-immunotherapy was given intraperitoneally (Sigma-Aldrich) every 3 days from day 3-12. Mice with primary and contralateral tumors of at least 6 mm were chosen to be randomized to various treatment arms evaluating CPI with and without cryoablation, imiquimod drug-only injection, PLGA-PEG-PLGA only injection, or imigel (3:1) injection. The imigel, gel alone, or serial imiquimod suspensions were injected as 50 μL injections using a 26-gauge needle. For cryoablation, parameters included a 30 s freeze, followed by 2 min thaw, followed by a 30 s freeze with goal of approximately 50% tumoral freezing. When using cryoablation, the drug formulations were injected 5 min post final freeze, with a mild pause during injection to ensure no push back via the tract into the remaining viable tumor. Imiquimod alone was prepared as a suspension by 30 min of sonication at 1 mg mL^−1 in normal saline. Injections for imiquimod alone were done as a total 50 μL 1 mg mL^−1 injections once per day for six total doses. Specifically, Imigel delivered a total of 300 μg in one injection in two 25 μL injection depots within the tumor at the same injection session for only one session. […]

Compound: O=S(=O)([O-])[O-].[Ba+2] [barium sulfate]
effect on release profile of imiquimod from injectable composition ([1]; phosphate buffer solution at 37 degrees C): does not significantly change the release profile of imiquimod

Compound: CC(C)Cn1cnc2c(N)nc3ccccc3c21 [imiquimod]
solubility in saline [2]: around 0.002 mg mL^−1 | solubility at 2 days ([3]; PLGA1.5k-PEG1.5k-PLGA1.5k micelles (hydrogel solution), aqueous with cosolvent or surfactant or cyclodextrin, thermodynamic from solid, in PLGA1.5k-PEG1.5k-PLGA1.5k micelles, read-out: concentration uniformly solubilized): ~6000 µg/mL | increase of aqueous solubility ([3]; encapsulated in micellar structure of PLGA-PEG-PLGA): approximately 2000 fold | percentage of activated CD8+ T cells (dual CD44+PD1+ among CD8+ T-cells) [4]: significant increase | 90-day survival ([5]; serial imiquimod (6 daily injections) with CPI and cryoablation): 46.7% | 90-day survival ([5]; serial imiquimod (6 daily injections) with CPI, no cryoablation): 57%

release profile of motolimod ([1]; into PBS, PLGA-PEG-PLGA 1600-1500-1600 and 1500-1500-1500): relatively extended | encapsulation ([3]; motolimod in PLGA-PEG-PLGA injectable composition): around 6 mg/mL
Compound: CCCN(CCC)C(=O)C1=Cc2ccc(-c3ccc(C(=O)N4CCCC4)cc3)cc2N=C(N)C1 [motolimod]
